From patent publication US10508104B2, “6-hydroxy-5-(phenyl/heteroarylsulfonyl)pyrimidin-4(1H)-one as APJ agonists” (Bristol-Myers Squibb Company, priority 2016, dated 2019)

Molecular target: human APJ receptor (Homo sapiens (Human), UniProt P35414)
Test: Intracellular cAMP accumulation assay (APJ hcAMP, HTRF)
Type: cell-based
Details: HEK293 cells stably expressing human APJ receptor; inhibition of forskolin-mediated cAMP production; read-out: Human APJ cAMP EC50 Potency range
Method in brief: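 HEK293 cells stably expressing human APJ, 5,000 per well, incubated 30 min at rt with compound, […] and 2 μM forskolin. cAMP measured by HTRF against a cAMP standard curve as inhibition of forskolin-driven production. EC50 from variable-slope sigmoidal fit.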

human APJ receptor, sequence (P35414 whole entry): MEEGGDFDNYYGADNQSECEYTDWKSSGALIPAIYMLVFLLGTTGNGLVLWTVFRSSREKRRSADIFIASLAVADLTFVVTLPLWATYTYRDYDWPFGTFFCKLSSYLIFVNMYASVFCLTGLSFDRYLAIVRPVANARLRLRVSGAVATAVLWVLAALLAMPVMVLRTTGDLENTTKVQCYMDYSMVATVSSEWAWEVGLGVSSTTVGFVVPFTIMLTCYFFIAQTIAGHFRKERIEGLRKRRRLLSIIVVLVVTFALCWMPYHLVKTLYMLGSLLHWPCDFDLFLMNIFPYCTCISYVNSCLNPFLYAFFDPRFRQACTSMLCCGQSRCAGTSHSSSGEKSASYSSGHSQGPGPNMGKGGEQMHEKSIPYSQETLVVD

SMILES | EC50 [nM]
CCCCc1nc(=O)c(S(=O)(=O)c2ccc(-c3cccc4c3C(=O)NC4)cc2)c(O)n1[C@@H](CC)c1cccc(C#N)c1 [Example 529, 3-[(1S)-1-{2-butyl-6-hydroxy-4-oxo-5-[4-(3-oxo-2,3-dihydro-1H-isoindol-4-yl)benzenesulfonyl]-1,4-dihydropyrimidin-1-yl}propyl]benzonitrile] | 0.01 to 10
CCCCc1nc(=O)c(S(=O)(=O)c2ccc(-c3ccccc3C(=O)NC)cc2)c(O)n1[C@H](c1cccc(C#N)c1)C1CC1 [Example 530, 4′-({2-butyl-1-[(S)-(3-cyanophenyl)(cyclopropyl)methyl]-6-hydroxy-4-oxo-1,4-dihydropyrimidin-5-yl}sulfonyl)-N-methyl-[1,1′-biphenyl]-2-carboxamide] | 0.01 to 10
CCCCc1nc(=O)c(S(=O)(=O)c2ccc(-c3cccc(C(C)(C)O)c3)cc2)c(O)n1[C@@H](CC)c1cccc(C#N)c1 [Example 531, 3-[(1S)-1-(2-buty1-6-hydroxy-5-{[3′-(2-hydroxypropan-2-yl)-[1,1′-biphenyl]-4-yl]sulfonyl}-4-oxo-1,4-dihydropyrimidin-1-yl)propyl]benzonitrile] | 10 to 100
CCCCc1nc(=O)c(S(=O)(=O)c2ccc(-c3ccc(C(C)(C)O)cc3)cc2)c(O)n1[C@@H](CC)c1cccc(C#N)c1 [Example 532, 3-[(1S)-1-(2-butyl-6-hydroxy-5-{[4′-(2-hydroxypropan-2-yl)-[1,1′-biphenyl]-4-yl]sulfonyl}-4-oxo-1,4-dihydropyrimidin-1-yl)propyl]benzonitrile] | 10 to 100
CCCCc1nc(=O)c(S(=O)(=O)c2ccc(-c3ccccc3C(=O)NC3CC3)cc2)c(O)n1[C@H](c1cccc(C#N)c1)C1CC1 [Example 533, 4′-({2-butyl-1-[(S)-(3-cyanophenyl)(cyclopropyl)methyl]-6-hydroxy-4-oxo-1,4-dihydropyrimidin-5-yl}sulfonyl)-N-cyclopropyl-[1,1′-biphenyl]-2-carboxamide] | 0.01 to 10
CCCCc1nc(=O)c(S(=O)(=O)c2ccc(-c3cccc(C(=O)NC4CC4)c3F)cc2)c(O)n1[C@@H](CC)c1cccc(C#N)c1 [Example 534, 4′-({2-butyl-1-[(1S)-1-(3-cyanophenyl)propyl]-6-hydroxy-4-oxo-1,4-dihydropyrimidin-5-yl}sulfonyl)-N-cyclopropyl-2-fluoro-[1,1′-biphenyl]-3-carboxamide] | 0.01 to 10
CCCCc1nc(=O)c(S(=O)(=O)c2ccc(-c3cccc4c3CNC4=O)cc2)c(O)n1[C@@H](CC)c1cccc(C#N)c1 [Example 535, 3-[(1S)-1-{2-butyl-6-hydroxy-4-oxo-5-[4-(1-oxo-2,3-dihydro-1H-isoindol-4-yl)benzenesulfonyl]-1,4-dihydropyrimidin-1-yl}propyl]benzonitrile] | 0.01 to 10
CCCCc1nc(=O)c(S(=O)(=O)c2ccc(-c3cc(F)ncc3C)cc2)c(O)n1[C@@H](CC)c1cccc(C#N)c1 [Example 536, 3-[(1S)-1-{2-butyl-5-[4-(2-fluoro-5-methylpyridin-4-yl)benzenesulfonyl]-6-hydroxy-4-oxo-1,4-dihydropyrimidin-1-yl}propyl]benzonitriIe] | 0.01 to 10
CCCCc1nc(=O)c(S(=O)(=O)c2ccc(-c3ccnc(F)c3C)cc2)c(O)n1[C@H]1CCc2c(C#N)cccc21 [Example 537, (1S)-1-{2-butyl-5-[4-(2-fluoro-3-methylpyridin-4-yl)benzenesulfonyl]-6-hydroxy-4-oxo-1,4-dihydropyrimidin-1-yl}-2,3-dihydro-1H-indene-4-carbonitrile] | 0.01 to 10
CCCCc1nc(=O)c(S(=O)(=O)c2ccc(-c3cccc(F)c3C(N)=O)cc2)c(O)n1[C@@H](CC)c1cccc(C#N)c1 [Example 538, 4′-({2-butyl-1-[(1S)-1-(3-cyanophenyl)propyl]-6-hydroxy-4-oxo-1,4-dihydropyrimidin-5-yl}sulfonyl)-3-fluoro-[1,1′-biphenyl]-2-carboxamide] | 0.01 to 10
CCCCc1nc(=O)c(S(=O)(=O)c2ccc(-c3cccnc3C)cc2)c(O)n1[C@H]1CCc2c(C#N)cccc21 [Example 539, (1S)-1-{2-butyl-6-hydroxy-5-[4-(2-methylpyridin-3-yl)benzenesulfonyl]-4-oxo-1,4-dihydropyrimidin-1-yl}-2,3-dihydro-1H-indene-4-carbonitrile] | 0.01 to 10
CCCCc1nc(=O)c(S(=O)(=O)c2ccc(-c3ccc(F)nc3C)cc2)c(O)n1[C@H]1CCc2c(C#N)cccc21 [Example 540, (1S)-1-{2-butyl-5-[4-(6-fluoro-2-methylpyridin-3-yl)benzenesulfonyl]-6-hydroxy-4-oxo-1,4-dihydropyrimidin-1-yl}-2,3-dihydro-1H-indene-4-carbonitrile] | 0.01 to 10
CCCCc1nc(=O)c(S(=O)(=O)c2ccc(-c3ccncc3C)cc2)c(O)n1[C@H]1CCc2c(C#N)cccc21 [Example 541, (1S)-1-{2-butyl-6-hydroxy-5-[4-(3-methylpyridin-4-yl)benzenesulfonyl]-4-oxo-1,4-dihydropyrimidin-1-yl}-2,3-dihydro-1H-indene-4-carbonitrile] | 0.01 to 10
CCCCc1nc(=O)c(S(=O)(=O)c2ccc(-c3ccnc(F)c3C)cc2)c(O)n1[C@@H]1CCc2ccc(C#N)cc21 [Example 542, (3R)-3-{2-butyl-5-[4-(2-fluoro-3-methylpyridin-4-yl)benzenesulfonyl]-6-hydroxy-4-oxo-1,4-dihydropyrimidin-1-yl}-2,3-dihydro-1H-indene-5-carbonitrile] | 10 to 100
CCCCc1nc(=O)c(S(=O)(=O)c2ccc(-c3cccc(C(=O)NC)c3)cc2)c(O)n1[C@@H]1CCc2ccc(C#N)cc21 [Example 543, 4′-({2-butyl-1-[(1R)-6-cyano-2,3-dihydro-1H-inden-1-yl]-6-hydroxy-4-oxo-1,4-dihydropyrimidin-5-yl}sulfonyl)-N-methyl-[1,1′-biphenyl]-3-carboxamide] | 10 to 100
CCCCc1nc(=O)c(S(=O)(=O)c2ccc(-c3ccncc3C)cc2)c(O)n1[C@@H]1CCc2ccc(C#N)cc21 [Example 544, (3R)-3-{2-butyl-6-hydroxy-5-[4-(3-methylpyridin-4-yl)benzenesulfonyl]-4-oxo-1,4-dihydropyrimidin-1-yl}-2,3-dihydro-1H-indene-5-carbonitrile] | 10 to 100
CCCCc1nc(=O)c(S(=O)(=O)c2ccc(-c3ccc(C(=O)NC)cc3F)cc2)c(O)n1[C@@H](CC)c1cccc(C#N)c1 [Example 545, 4′-({2-butyl-1-[(1S)-1-(3-cyanophenyl)propyl]-6-hydroxy-4-oxo-1,4-dihydropyrimidin-5-yl}sulfonyl)-2-fluoro-N-methyl-[1,1′-biphenyl]-4-carboxamide] | 0.01 to 10
CCCCc1nc(=O)c(S(=O)(=O)c2ccc(-c3ccc(F)nc3C)cc2)c(O)n1[C@@H]1CCc2ccc(C#N)cc21 [Example 546, (3R)-3-{2-butyl-5-[4-(6-fluoro-2-methylpyridin-3-yl)benzenesulfonyl]-6-hydroxy-4-oxo-1,4-dihydropyrimidin-1-yl}-2,3-dihydro-1H-indene-5-carbonitrile] | 100 to 300
CCCCc1nc(=O)c(S(=O)(=O)c2ccc(-c3cccnc3C)cc2)c(O)n1[C@@H]1CCc2ccc(C#N)cc21 [Example 547, (3R)-3-{2-butyl-6-hydroxy-5-[4-(2-methylpyridin-3-yl)benzenesulfonyl]-4-oxo-1,4-dihydropyrimidin-1-yl}-2,3-dihydro-1H-indene-5-carbonitrile] | 10 to 100
CCCCc1nc(=O)c(S(=O)(=O)c2ccc(-c3ccccc3C(=O)NC)cc2)c(O)n1[C@@H]1CCc2ccc(C#N)cc21 [Example 548, 4′-({2-butyl-1-[(1R)-6-cyano-2,3-dihydro-1H-inden-1-yl]-6-hydroxy-4-oxo-1,4-dihydropyrimidin-5-y1}sulfonyl)-N-methyl-[1,1′-biphenyl]-2-carboxamide] | 10 to 100
CCCCc1nc(=O)c(S(=O)(=O)c2ccc(-c3ccnc(F)c3C)cc2)c(O)n1[C@@H](CC)c1cccc(C#N)n1 [Example 549, 6-[(1S)-1-{2-butyl-5-[4-(2-fluoro-3-methylpyridin-4-yI)benzenesulfonyl]-6-hydroxy-4-oxo-1,4-dihydropyrimidin-1-yl}propyl]pyridine-2-carbonitrile] | 0.01 to 10
CCCCc1nc(=O)c(S(=O)(=O)c2ccc(-c3ccncc3C)cc2)c(O)n1[C@@H](CC)c1cccc(C#N)n1 [Example 550, 6-[(1S)-1-{2-butyl-6-hydroxy-5-[4-(3-methylpyridin-4-yl)benzenesulfonyl]-4-oxo-1,4-dihydropyrimidin-1-yl}propyl]pyridine-2-carbonitrile] | 0.01 to 10
CCCCc1nc(=O)c(S(=O)(=O)c2ccc(-c3ccccc3C(=O)NC)cc2)c(O)n1[C@@H](CC)c1cccc(C#N)n1 [Example 551, 4′-({2-butyl-1-[(1S)-1-(6-cyanopyridin-2-yl)propyl]-6-hydroxy-4-oxo-1,4-dihydropyrimidin-5-yl}sulfonyl)-N-methyl-[1,1′-biphenyl]-2-carboxamide] | 0.01 to 10
CCCCc1nc(=O)c(S(=O)(=O)c2ccc(-c3cccc(C(=O)NC)c3)cc2)c(O)n1[C@@H](CC)c1cccc(C#N)n1 [Example 552, 4′-({2-butyl-1-[(1S)-1-(6-cyanopyridin-2-yl)propyl]-6-hydroxy-4-oxo-1,4-dihydropyrimidin-5-yl}sulfonyl)-N-methyl-[1,1′-biphenyl]-3-carboxamide] | 0.01 to 10
CCCCc1nc(=O)c(S(=O)(=O)[C@H]2CC[C@H](O)CC2)c(O)n1-c1c(CC)cccc1CC [Example 553, 2-butyl-1-(2,6-diethylphenyl)-6-hydroxy-5-{[(1r,4r)-4-hydroxycyclohexyl]sulfonyl}-1,4-dihydropyrimidin-4-one] | 0.01 to 10
CCCCc1nc(=O)c(S(=O)(=O)[C@H]2CC[C@@H](O)CC2)c(O)n1-c1c(CC)cccc1CC [Example 554, 2-butyl-1-(2,6-diethylphenyl)-6-hydroxy-5-{[(1s,4s)-4-hydroxycyclohexyl]sulfonyl}-1,4-dihydropyrimidin-4-one] | 0.01 to 10
